According to US5233031A, “Phosphoramidate analogs of 2'-deoxyuridine” (University of Rochester, priority 1991, dated 1993):
Read-outs that look alike come from different tables or passages of the source.

What was measured:
Type in all cases: cell-based
B16 melanoma cells = test: Cytotoxicity against B16 melanoma cells (clonogenic assay); settings: read-out: LC-99 (concentration of compound required to kill 99% of B16 melanoma cells)
Method: ^a Concentration of compound required to kill 99% of B16 melanoma
cells in a clonogenic assay. Cells were treated with the compound for 2
B16 cells in exponential growth (2-3×10^6 cells in 10 ml of serum-free MEM medium) were treated with drug for 2 hr. The cells were separated, washed, and resuspended in MEM medium supplemented with 10% fetal bovine serum. The cells were plated in 60-mm culture dishes at a density of 50-50,000 cells/plate (depending upon the drug concentration used initially) and then incubated for 8 days in a CO2 incubator at 37° C. The colonies were fixed and stained with 0.5% crystal violet in ethanol and counted.

L1210 leukemia cells [1] = test: Growth inhibition against L1210 leukemia cells in vitro; settings: for IC50: Mus musculus
Method: In addition to the B16 melanoma cell assay summarized in Table I, compounds 1a-e, 5 and 7 were evaluated for growth inhibitory activity against L1210 leukemia cells. Stock solutions of the compounds were prepared in 95% ethanol, and serial dilutions of drug were prepared in ethanol such that 50 μl of drug solution added to 10 ml of cell suspension gave the desired final concentration. L1210 cells in exponential growth were suspended in Fischer's medium supplemented with 10% horse serum, 1% glutamine, and 1% antibiotic-antimycotic solution to give 10-ml volumes of cell suspension at a final density of 3-6×10^4 /ml. Appropriate volumes of the solutions of each compound were transferred to the cell suspensions, and incubation was continued for 2, 8, 24, or 48 hr. The cells were spun down, resuspended in fresh drug-free medium, and returned to the incubator, then counted with a Coulter Counter 48 hr after treatment with the compound.
^a Data represents an average of at least two experiments; L1210 cell
were treated with compound for 2, 8, 24 and 48 hr. The drugcontaining
medium was removed, cells were washed, complete medium was added, and the
cells were incubated for 48 hr total. Cell counts were obtained 48 hr
after the start of treatment.

L1210 leukemia cells [2] = test: Reversal of L1210 growth inhibition by addition of thymidine; settings: 5 μM thymidine
Text: The relationship between potency and alkylating activity was confirmed by the synthesis and evaluation of the non-alkylating morpholino phosphoramidate 1e.

[3] = Mus musculus, B16, 2 hr treatment
[4] = L1210, 48 h, read-out: IC50, treatment time 48 hr
[5] = L1210, read-out: IC50, treatment time 2 hr
[6] = L1210, read-out: IC50, treatment time 8 hr
[7] = L1210, read-out: IC50, treatment time 24 hr

Structure (SMILES) | IC99 (B16 melanoma cells; [3]) | IC50 (L1210 leukemia cells [1]; [4]) | IC50 (L1210 leukemia cells [1]; [5]) | IC50 (L1210 leukemia cells [1]; [6]) | IC50 (L1210 leukemia cells [1]; [7]) | other results
CC1CC(C)(C)NC(CCOP(=O)(OC[C@H]2O[C@@H](n3cc(F)c(=O)[nH]c3=O)C[C@@H]2O)N2CCCCC2)O1 (some centres unmarked) [Compound 4, 5-Fluoro-2'-deoxy-5'-uridyl-[2-(4,4,6-trimethyltetrahydro-1,3-oxazin-2-yl)ethyl]piperidinophosphoramidate] | 98 µM |  |  |  |  | 
CC1CC(C)(C)NC(CCOP(=O)(OC[C@H]2O[C@@H](n3cc(F)c(=O)[nH]c3=O)C[C@@H]2O)N(C)CCCl)O1 (some centres unmarked) [Compound 1c] | 308 µM | 3.5 nM | 300 nM | 160 nM | 25 nM | 
Cc1cn([C@H]2C[C@H](O)[C@@H](COP(=O)(OCCC3NC(C)(C)CC(C)O3)N(C)CCBr)O2)c(=O)[nH]c1=O (some centres unmarked) [Compound 7, Thymidyl-[2-(4,4,-trimethyltetrahydro-1,3-oxazin-2-yl)ethyl]-N-methyl-N-(2-bromoethyl)phosphoramidate] | 165 µM | 590 nM | 13000 nM | 10500 nM | 7000 nM | 
CC1CC(C)(C)NC(CCOP(=O)(OC[C@H]2O[C@@H](n3cc(F)c(=O)[nH]c3=O)C[C@@H]2O)N(C)CCBr)O1 (some centres unmarked) [Compound 1a, 5-FIuoro-2'-deoxy-5'-uridyl-[2-(4,4,6-trimethyltetrahydro-1,3-oxazin-2-yl)ethyl]-N-methyl-N-(2-bromoethyl)phosphoramidate] | 100 µM | 2.5 nM | 120 nM | 50 nM | 18 nM | inhibition of cell proliferation (L1210 leukemia cells [1]; 1a: 2 hr contact time, iodo and tosyl analogs: compared with 1a): potent inhibitor of cell proliferation; potency relative to 5-FU (more potent) (L1210 leukemia cells [1]; treatment times of 2, 8, 24, and 48 hr): 1-2 orders of magnitude; inhibitory activity on addition of thymidine (L1210 leukemia cells [2]): completely blocked
CC1CC(C)(C)NC(CCOP(=O)(OC[C@H]2O[C@@H](n3ccc(=O)[nH]c3=O)C[C@@H]2O)N(C)CCBr)O1 (some centres unmarked) [Compound 5, 2'-Deoxy-5'-uridyl-[2-(4,4,-trimethyltetrahydro-1,3-oxazin-2-yl)ethyl]-N-methyl-N-(2-bromoethyl)phosphoramidate] | 318 µM | 425 nM | 20000 nM | 8200 nM | 1300 nM | 
Cc1cn([C@H]2C[C@H](O)[C@@H](COP(=O)(OCCC3NC(C)(C)CC(C)O3)N3CCOCC3)O2)c(=O)[nH]c1=O (some centres unmarked) [Compound 3, Thymidyl-[2-(4,4,6-trimethyltetrahydro-1,3-oxazin-2-yl)ethyl]morpholinophosphoramidate] | 152 µM |  |  |  |  | 
CC1CC(C)(C)NC(CCOP(=O)(OC[C@H]2O[C@@H](n3cc(F)c(=O)[nH]c3=O)C[C@@H]2O)N(C)CCI)O1 (some centres unmarked) [Compound 1d, 5-Fluoro-2'deoxy-5'-uridyl-[2-(4,4,6-trimethyltetrahydro-1,3-oxazin-2-yl)ethyl]-N-methyl-N-(2-iodoethyl)phosphoramidate] | 95 µM | 2 nM | 190 nM | 75 nM | 6 nM | 
O=c1[nH]cc(F)c(=O)[nH]1 [5-Fluorouracil, reference compound] |  |  |  |  |  | IC50 (L1210 leukemia cells [1]; L1210, 2 hr treatment, counted 48 hr after start of treatment, average of at least two experiments, read-out: IC50, treatment time 2 hr): 2200 nM; IC50 (L1210 leukemia cells [1]; L1210, 8 hr treatment, counted 48 hr after start of treatment, average of at least two experiments, read-out: IC50, treatment time 8 hr): 630 nM; IC50 (L1210 leukemia cells [1]; L1210, 24 hr treatment, counted 48 hr after start of treatment, average of at least two experiments, read-out: IC50, treatment time 24 hr): 220 nM; IC50 (L1210 leukemia cells [1]; L1210, 48 hr treatment, average of at least two experiments, read-out: IC50, treatment time 48 hr): 125 nM
Cc1cn([C@H]2C[C@H](O)[C@@H](COP(=O)(OCCC3NC(C)(C)CC(C)O3)N(CCBr)CCBr)O2)c(=O)[nH]c1=O (some centres unmarked) [Compound 8, Thymidyl-[2-(4,4,6-trimethyltetrahydro-1,3-oxazin-2-yl)ethyl]bis-(2-bromoethyl)phosphoramidate] |  |  |  |  |  | IC99 (B16 melanoma cells; 2 hr treatment): 120 µM
CC1CC(C)(C)NC(CCOP(=O)(OC[C@H]2O[C@@H](n3ccc(=O)[nH]c3=O)C[C@@H]2O)N2CCOCC2)O1 (some centres unmarked) [Compound 2, 2'-Deoxy-5'-uridyl-[2-(4,4,6-trimethyltetrahydro-1,3-oxazin-2-yl)ethyl]morpholinophosphoramidate] | 190 µM |  |  |  |  | 
CC1CC(C)(C)NC(CCOP(=O)(OC[C@H]2O[C@@H](n3cc(F)c(=O)[nH]c3=O)C[C@@H]2O)N2CCOCC2)O1 (some centres unmarked) [Compound 1e, 5-Fluoro-2'-deoxy-5'-uridyl-[2-(4,4,6-trimethyltetrahydro-1,3-oxazin-2-yl)ethyl]-morpholinophosphoramidate] | 216 µM | 150 nM | 15000 nM | 5000 nM | 900 nM | potency compared with 5-FU (L1210 leukemia cells [1]; long treatment times): comparable in potency to 5-FU
Cc1ccc(S(=O)(=O)OCCN(C)P(=O)(OCCC2NC(C)(C)CC(C)O2)OC[C@H]2O[C@@H](n3cc(F)c(=O)[nH]c3=O)C[C@@H]2O)cc1 (some centres unmarked) [Compound 1b] | 156 µM | 2.5 nM | 160 nM | 60 nM | 19 nM | 
